Values quoted from earlier work in patent US20030040459A1, “Cleaning compositions” (Unilever Home & Pesonal Care USA, priority 2001, published 2003).

Conditions: for Water Solubility (g/100 g): at 20° C.

Row | SMILES | Water Solubility (grams/100 grams water) (grams of solid to form a saturated solution in 100 grams of deionised water at 20° C.) | Water Solubility (g/100 g)
1 | NC(N)=O [Urea] | >100 grams/100 grams water | –
2 | O=P(O)(O)OP(=O)(O)OP(=O)(O)O [Sodium tripolyphosphate anhydrous] | – | 15 g/100 g
3 | O=BO[O-].[Na+] [Sodium perborate anhydrous] | – | 3.7 g/100 g
